What was measured:
[1] = system: protein synthesis in vitro with rabbit reticulocyte lysate; format: biochemical
[2] = system: antibody obtained from C430-BSA-immunized mice; test: CI-ELISA: antisera of C430-BSA-immunized mice on immobilized DONPEP.2 phage; format: binding
Experimental: The strips were washed and blocked as described for the CD-ELISA. Various concentrations of DON (0 to 10,000 ηg/ml in 1% methanol-PBS), 50 μl/well, was added to the wells, and then 50 μl of anti-DON mAB 6F5 (10 μg/ml in 10% milk-PBS) was added to each well. The wells were incubated at 37° C. for 1 hour. Then the wells were washed six times with PBS-T, and the amounts of bound anti-DON mAB 6F5 were determined by incubation with goat anti-mouse IgG-HRP conjugate (diluted 1:2,000 with 10% milk-PBS) at 37° C. for 1 hour. The amounts of bound enzyme were determined as described above.
Synthetic peptide C430 was conjugated to BSA with a m-maleimidobenzoyl-N-hydroxysulfosuccinimide ester (sulfo-MBS) cross-linker. The C430-BSA conjugate, at a molar ratio of peptide C430 to the carrier protein BSA of about 29:1, was used to inject 7-week-old BALB/c female mice intraperitoneally or 6-month-old New Zealand white rabbits subcutaneously. The initial injections used for the mice contained 100 to 200 μg of C430-BSA conjugate in 200 μl of saline-Freund's complete adjuvant (1:1). These injections were followed at 3-week intervals by booster injections consisting of 100 to 200 μg of conjugate in 200 μl of saline-Freund's incomplete adjuvant (1:1). […]

mAB 6F5 [3] = format: binding, mouse; settings: read-out: 50% inhibitory concentration
mAB 6F5 [4] = test: Binding of nivalenol to mAB 6F5; set-up: species or system mouse

Molecule | effect on new protein synthesis [1] | new protein synthesis with DON mixed with equimolar C430 [1] | effect on cell viability when combined with DON (mouse bone marrow cells) | effect on viability of bone marrow cells (mouse bone marrow cells) | IC50 ([2]; antiserum after the fourth injection of C430-BSA, FIG. 6, read-out: concentration giving 50% inhibition of antiserum binding to immobilized phage-displayed peptide) [nM] | IC50 (mAB 6F5 [3]) [nM] | cell death (mouse bone marrow cells; B6C3F1, mouse) | inhibition of antisera binding to immobilized phage-displayed peptide ([2]; free competitor in solution) | affinity for mAB 6F5 relative to DON (mAB 6F5 [4])
H-SWGPFPFGGGSC-OH [C430, NH2-SWGPFPFGGGSC-COOH] | had no such inhibitory effect | new protein synthesis was not inhibited | did not significantly increase or decrease the cell viability caused by DON | did not have any adverse effect on the viability | 390 |  |  |  | 
CC1=C[C@H]2O[C@@H]3[C@H](O)C[C@](C)([C@@]2(CO)[C@H](O)C1=O)[C@]31CO1 [DON, 12,13-epoxy-3,7,15-trichothec-9-en-8-one, reference compound] | significantly inhibited new protein synthesis |  |  |  |  | 3400 | 40-60% | not inhibited by free DON | 
CC1=C[C@H]2O[C@@H]3[C@H](O)[C@@H](O)[C@](C)([C@@]2(CO)[C@H](O)C1=O)[C@]31CO1 [Nivalenol, nivalenol] |  |  |  |  |  |  |  |  | slightly less affinity than DON
